Laboratory results as given in patent US12637468B2, “Substituted [1,2,4]triazolo[4,3-b]pyridazines as GABAA receptor modulators” (SHANGHAI SIMR BIOTECHNOLOGY CO., LTD., priority 2019, dated 2026).

The molecules below were run against T1, α5-GABAA receptor (Homo sapiens, UniProt P18507+P31644) (assay: Cell-level screening: whole cell patch clamp, inverse agonist efficacy on α5-GABAA receptor expressed in HEK293). Settings: drug 100 nM, GABA 0.05 μM, HEK293 expressing α5, β3 and γ2 subunits, clamped at −60 mV; read-out: Compound inverse agonist efficacy %.
T1 construct: expressed in transfected cells; host or cells: HEK293, monoclonal stably transfected line
T1 sequence (P31644 32-462): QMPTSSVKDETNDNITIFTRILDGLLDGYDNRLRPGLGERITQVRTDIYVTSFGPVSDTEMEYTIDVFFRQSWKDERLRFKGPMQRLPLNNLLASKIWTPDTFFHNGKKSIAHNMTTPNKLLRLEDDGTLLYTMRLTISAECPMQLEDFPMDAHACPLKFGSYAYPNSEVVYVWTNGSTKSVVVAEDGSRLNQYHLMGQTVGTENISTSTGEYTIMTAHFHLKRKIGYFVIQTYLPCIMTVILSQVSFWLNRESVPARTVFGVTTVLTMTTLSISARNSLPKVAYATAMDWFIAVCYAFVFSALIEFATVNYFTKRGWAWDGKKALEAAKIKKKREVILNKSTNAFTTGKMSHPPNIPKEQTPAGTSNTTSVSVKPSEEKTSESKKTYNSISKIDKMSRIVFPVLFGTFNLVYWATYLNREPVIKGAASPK
T1 sequence (P28472 26-473 partner): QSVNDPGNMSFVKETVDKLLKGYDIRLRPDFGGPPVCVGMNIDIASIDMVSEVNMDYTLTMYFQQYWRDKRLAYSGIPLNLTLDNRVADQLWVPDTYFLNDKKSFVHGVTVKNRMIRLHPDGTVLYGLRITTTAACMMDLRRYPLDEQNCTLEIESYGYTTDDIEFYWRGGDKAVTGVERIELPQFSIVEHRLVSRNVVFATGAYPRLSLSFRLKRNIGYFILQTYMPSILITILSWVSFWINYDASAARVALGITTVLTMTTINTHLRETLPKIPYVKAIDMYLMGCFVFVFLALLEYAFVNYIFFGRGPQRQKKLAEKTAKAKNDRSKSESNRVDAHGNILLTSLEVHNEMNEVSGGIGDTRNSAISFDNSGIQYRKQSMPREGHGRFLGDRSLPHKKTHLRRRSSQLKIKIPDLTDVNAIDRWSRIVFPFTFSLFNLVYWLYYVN
T1 sequence (P18507 40-467 isoform P18507-1 limits assumed): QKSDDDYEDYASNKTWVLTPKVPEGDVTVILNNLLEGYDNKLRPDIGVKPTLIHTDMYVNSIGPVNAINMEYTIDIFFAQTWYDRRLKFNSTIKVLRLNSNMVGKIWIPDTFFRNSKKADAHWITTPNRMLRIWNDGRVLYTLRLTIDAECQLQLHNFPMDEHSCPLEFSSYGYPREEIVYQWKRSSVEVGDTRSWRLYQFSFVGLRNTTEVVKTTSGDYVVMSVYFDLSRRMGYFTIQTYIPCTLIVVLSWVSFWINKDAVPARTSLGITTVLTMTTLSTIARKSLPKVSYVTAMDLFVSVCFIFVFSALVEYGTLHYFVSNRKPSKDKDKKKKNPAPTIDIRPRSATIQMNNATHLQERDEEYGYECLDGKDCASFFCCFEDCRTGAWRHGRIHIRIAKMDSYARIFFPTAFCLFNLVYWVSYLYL
Format: cell-based
Procedure: The inventors used electrophysiological methods to determine the inverse agonist efficacy of the drugs to be tested on the α5-GABAA receptor. The detailed methods are as follows:
Different subunits of GABAA receptors were expressed in human […] cell line 293 (HEK293) cell line. The cells were cultured in a culture medium and used as a cell model for screening pain inhibiting drugs. The α, β and γ subunits are necessary to form complete functional GABAA receptors. In this embodiment, the inventors had established the following cell model: α5 subunit (see GenBank Accession No. NM_000810.3 for protein sequences), β3 subunit (see GenBank Accession No. NM_000814.5 for protein sequences) and γ2 subunit (see GenBank Accession No. NM_000816.3 for protein sequences) were expressed in HEK293 cell line at the same time, followed by screening the monoclonal cell line. This cell line contained α5-GABAA receptor and had complete GABAA receptor function.
The monoclonal stably transfected HEK-293 cells expressing α5-GABAA receptor were cultured in 10 cm culture dishes and passaged when the cells grew to 80%-90%. During passaging, the culture medium was aspirated first, then 3 mL of DPBS phosphate buffer salt (Gibco™) was added to the culture dishes, and the culture dishes were shaken slightly, and DPBS was aspirated. 1 mL of trypsin (TrypLE Express, Gibco™) was added thereto, and the cells were digested at 37° C. for 1-2 minutes. Then 3 mL of complete medium (DMEM+10% FBS (Gibco™)) was added and the cells at the bottom of the culture dishes were dispersed. The cell suspension were transferred to a 15 mL centrifugal tube (Corning) and then centrifuged at 200 g for 3 minutes. The supernatant was discarded, 4 mL of complete medium was added, and the cells were gently blown and resuspended for use. If cell passaging was performed, the cell suspension was diluted at a ratio of 1:5 or 1:10. If cells for electrophysiology use were prepared, the cell suspension was diluted in a ratio of 1:12, then added into a 24-well dish (Corning™) in which glass slides were placed and pretreated with Poly-D-Lysine, and the cells were tested after being attached to the walls. The culture time of cells for electrophysiology use was no more than 48 hours.
Drug concentration setting: the final drug concentration used in drug screening was 100 nM, and the GABA concentration range was 0.05 μM. The final drug concentrations used in the dose-inversal agonistic efficiency (%) test were 0.3 nM, 3 nM, 10 nM, 30 nM, 100 nM and 300 nM. The whole cell patch clamp technique was used in electrophysiological experiments, which could refer to the literature (I. Lecker, Y. Yin, D. S. Wang and B. A. Orser, (2013) Potentiation of GABAA receptor activity by volatile anaesthetics is reduced by α5-GABAA receptor-preferring inverse agonists, British Journal of Anaesthesia 110 (S1): i73-i81). The components of extracellular solution (ECS) for electrophysiology use were as follows: 150 mM NaCl, 5 mM KCl, 2.5 mM CaCl2), 1 mM MgCl2, 10 mM HEPES and 10 mM glucose (pH 7.4); electrode internal solutions for electrophysiology use were as follows: 140 mM CsCl, 11 mM EGTA, 10 mM HEPES, 2 mM CaCl2), 1 mM MgCl2, 4 mM MgATP, 2 mM TEA (pH 7.3). The signal acquisition used an EPC-10 amplifier and the PatchMaster software (HEKA). The recording electrode was drawn using borosilicate glass, and the electrode resistance was 4 to 6 MΩ. The ALA-VC3-8PP™ system was used for extracellular administration. Separate cells that grew independently was selected for recording. During recording, the cell membrane potential was clamped at −60 mV. During experiment, an extracellular solution was applied to the cells for about 20 seconds. When the baseline reached to a stable state, the extracellular solution was switched to GABA. Then the current induced by GABA could be detected. […]
Work on `COc1cc2nnc(-c3cc(C)on3)n2nc1OCc1ccc2c(n1)CCN([C@H]1CCOC1)C2` (single isomer, unassigned) [Embodiment 181] yielded an inhibition at 0.1 µM of 59%. `COc1cc2nnc(-c3cc(C)on3)n2nc1OCc1ccc2c(n1)CCN([C@@H]1CCOC1)C2` (single isomer, unassigned) [Embodiment 182] showed an inhibition at 0.1 µM of 53.8%. `COc1cc2nnc(-c3cc(C)on3)n2nc1OCc1cccc(N2CCOCC2)n1` [Embodiment 2] was tested, and the inhibition at 0.1 µM was 26.6%. With `COc1cc2nnc(-c3cc(C)on3)n2nc1OCc1cccc(N(C)C)n1` [Embodiment 3] the inhibition at 0.1 µM was 37.1%. In the case of `COc1cc2nnc(-c3cc(C)on3)n2nc1OCc1cccc(F)n1` [Embodiment 4], the inhibition at 0.1 µM is reported as 40.8%. `COc1cc2nnc(-c3cc(C)on3)n2nc1OCc1ccccc1C#N` [Embodiment 5] showed an inhibition at 0.1 µM of 31.5%. `COc1cc2nnc(-c3cc(C)on3)n2nc1OCc1ccc(OCCCC#N)cn1` [Embodiment 8] gave an inhibition at 0.1 µM of 57.8%. With `COCCOc1ccnc(COc2nn3c(-c4cc(C)on4)nnc3cc2OC)c1` [Embodiment 10] the inhibition at 0.1 µM was 37.1%. Work on `COc1cc2nnc(-c3cc(C)on3)n2nc1OCc1ccc(C(=O)NCC(F)(F)F)cn1` [Embodiment 11, 6-(((7-Methoxy-3-(5-methylisoxazol-3-yl)-[1,2,4]triazolo[4,3-b]pyridazin-6-yl)oxy)methyl)-N-(2,2,2-trifluoroethyl)nicotinamide] yielded an inhibition at 0.1 µM of 35.4%. `CCNC(=O)c1ccc(COc2nn3c(-c4cc(C)on4)nnc3cc2OCC)nc1` [Embodiment 12, 6-(((7-Ethoxy-3-(5-methylisoxazol-3-yl)-[1,2,4]triazolo[4,3-b]pyridazin-6-yl)oxy)methyl)-N-ethylnicotinamide] showed an inhibition at 0.1 µM of 29.6%. For `COc1cc2nnc(-c3cc(C)on3)n2nc1OCc1ccc(C2=CCCCC2)cn1` [Embodiment 13], the inhibition at 0.1 µM was 29%. `Cc1cc(-c2nnc3cc(OCC4CC4)c(OCc4ccccn4)nn23)no1` [Embodiment 14] was tested, and the inhibition at 0.1 µM was 19.4%. Work on `COCCCOc1ccc(COc2nn3c(-c4cc(C)on4)nnc3cc2OC)nn1` [Embodiment 15] yielded an inhibition at 0.1 µM of 45.8%. In the case of `COc1cc2nnc(-c3cc(C)on3)n2nc1OCc1cccc(C)n1` [Embodiment 16], the inhibition at 0.1 µM is reported as 31.1%. For `COc1cc2nnc(-c3cc(C)on3)n2nc1OCc1ncccc1Cl` [Embodiment 17], the inhibition at 0.1 µM was 47.7%. For `COc1cc2nnc(-c3cc(C)on3)n2nc1OCc1cccc(Cl)n1` [Embodiment 18], the inhibition at 0.1 µM was 23%. `COc1cc2nnc(-c3cc(C)on3)n2nc1OCc1ccc(Cl)cn1` [Embodiment 20] showed an inhibition at 0.1 µM of 42.9%. `CCOc1cccc(COc2nn3c(-c4cc(C)on4)nnc3cc2OC)n1` [Embodiment 22] showed an inhibition at 0.1 µM of 22.1%. `CCOc1ccc(COc2nn3c(-c4cc(C)on4)nnc3cc2OC)nc1` [Embodiment 23] showed an inhibition at 0.1 µM of 41.2%. `COc1cc2nnc(-c3cc(C)on3)n2nc1OCc1ccc(OC(F)F)cn1` [Embodiment 24] gave an inhibition at 0.1 µM of 35%. For `COc1cc2nnc(-c3cc(C)on3)n2nc1OCc1ccc(OC(C)C)cn1` [Embodiment 25], the inhibition at 0.1 µM was 34.1%. In the case of `COCCOc1ccc(COc2nn3c(-c4cc(C)on4)nnc3cc2OC)nn1` [Embodiment 26], the inhibition at 0.1 µM is reported as 41.7%. `COc1cc2nnc(-c3cc(C)on3)n2nc1OCc1ccc(OCCCC#N)nn1` [Embodiment 27] gave an inhibition at 0.1 µM of 42%. `COc1cc2nnc(-c3cc(C)on3)n2nc1OCc1cc(C#N)ccn1` [Embodiment 29] showed an inhibition at 0.1 µM of 66.9%. Molecule `COc1cc2nnc(-c3cc(C)on3)n2nc1OCc1ncccc1C#N` [Embodiment 30] has an inhibition at 0.1 µM of 29.4%. For `COc1cc2nnc(-c3cc(C)on3)n2nc1OCc1ccc(C2CC2)cn1` [Embodiment 34], the inhibition at 0.1 µM was 38%. With `CCNC(=O)c1ccc(COc2nn3c(-c4cc(C)on4)nnc3cc2OC)nc1` [Embodiment 35] the inhibition at 0.1 µM was 39.3%. `COc1ccc(COc2nn3c(-c4cc(C)on4)nnc3cc2OC)nc1` [Embodiment 37] showed an inhibition at 0.1 µM of 42.1%. In the case of `COc1cccc(COc2nn3c(-c4cc(C)on4)nnc3cc2OC)n1` [Embodiment 38], the inhibition at 0.1 µM is reported as 32%. `COc1cc2nnc(-c3cc(C)on3)n2nc1OCc1cccc(C#N)n1` [Embodiment 40] gave an inhibition at 0.1 µM of 39%. Molecule `COc1cc2nnc(-c3cc(C)on3)n2nc1OCc1ccc(C#N)cn1` [Embodiment 41] has an inhibition at 0.1 µM of 39.4%. `COc1cc2nnc(-c3cc(C)on3)n2nc1OCc1ccc(C)cn1` [Embodiment 42] was tested, and the inhibition at 0.1 µM was 44.9%. With `COc1cnc(COc2nn3c(-c4cc(C)on4)nnc3cc2OC)cn1` [Embodiment 44] the inhibition at 0.1 µM was 44.8%. `COc1cc2nnc(-c3cc(C)on3)n2nc1OCc1cccc(C(F)(F)F)n1` [Embodiment 45] gave an inhibition at 0.1 µM of 42.4%. With `COc1cc2nnc(-c3cc(CO)on3)n2nc1OCc1ccccn1` [Embodiment 46, (3-(7-Methoxy-6-(pyridin-2-ylmethoxy)-[1,2,4]triazolo[4,3-b]pyridazin-3-yl]isoxazol-5-yl)methanol] the inhibition at 0.1 µM was 48.7%. With `COCc1cc(-c2nnc3cc(OC)c(OCc4ccc(OC)cn4)nn23)no1` [Embodiment 48, 3-(7-Methoxy-6-((5-methoxypyridin-2-yl)methoxy)-[1,2,4]triazolo[4,3-b]pyridazine-3-yl)-5-(methoxymethyl)isoxazole] the inhibition at 0.1 µM was 34.7%. `COc1ccnc(COc2nn3c(-c4cc(C)on4)nnc3cc2OC)c1` [Embodiment 51] gave an inhibition at 0.1 µM of 46.2%. Work on `COc1cccnc1COc1nn2c(-c3cc(C)on3)nnc2cc1OC` [Embodiment 52] yielded an inhibition at 0.1 µM of 38%. Molecule `COc1cc2nnc(-c3cc(C)on3)n2nc1OCc1ccc(S(C)(=O)=O)cn1` [Embodiment 53] has an inhibition at 0.1 µM of 48.8%. Work on `Cc1cc(-c2nnc3cc(OC(F)F)c(OCc4ccccn4)nn23)no1` [Embodiment 54] yielded an inhibition at 0.1 µM of 43.5%. For `COc1cc2nnc(-c3cc(C)on3)n2nc1OCc1ccc(C2CCC2)cn1` [Embodiment 56], the inhibition at 0.1 µM was 21.6%. With `COc1cc2nnc(-c3cc(C)on3)n2nc1OCc1cccc(C2CC2)n1` [Embodiment 57] the inhibition at 0.1 µM was 17.6%. Molecule `COc1cc2nnc(-c3cc(C)on3)n2nc1OCc1ccc(F)cn1` [Embodiment 58] has an inhibition at 0.1 µM of 38.5%. In the case of `COc1cc2nnc(-c3cc(C)on3)n2nc1OCc1ccc(C(F)(F)F)cn1` [Embodiment 59], the inhibition at 0.1 µM is reported as 35.7%. With `COc1cnc(COc2nn3c(-c4cc(C)on4)nnc3cc2OC)cc1OC` [Embodiment 60] the inhibition at 0.1 µM was 45.8%. In the case of `COc1cc2nnc(-c3cc(C)on3)n2nc1OCc1ccc(OC(F)(F)F)cn1` [Embodiment 61], the inhibition at 0.1 µM is reported as 45.8%. `COc1ccc(C(F)(F)F)nc1COc1nn2c(-c3cc(C)on3)nnc2cc1OC` [Embodiment 62] showed an inhibition at 0.1 µM of 35.7%. `COc1cc2nnc(-c3cc(C)on3)n2nc1OCc1ccn2nccc2n1` [Embodiment 64] showed an inhibition at 0.1 µM of 40%. `COc1cc2nnc(-c3cc(C)on3)n2nc1OCc1ccnc2ccnn12` [Embodiment 65] showed an inhibition at 0.1 µM of 55.4%. `CCN1Cc2nc(COc3nn4c(-c5cc(C)on5)nnc4cc3OC)ccc2C1=O` [Embodiment 67] gave an inhibition at 0.1 µM of 58%. With `COc1cc2nnc(-c3cc(C)on3)n2nc1OCc1ccc(C2CCCN2)cn1` (centres unmarked) [Embodiment 69, 3-(7-Methoxy-6-((5-(pyrrolidin-2-yl)pyridin-2-yl)methoxy)-[1,2,4]triazolo[4,3-b]pyridazin-3-yl)-5-methylisoxazole] the inhibition at 0.1 µM was 50%. For `COc1cc2nnc(-c3cc(C)on3)n2nc1OCc1cccc(C2(F)CNC2)n1` [Embodiment 70], the inhibition at 0.1 µM was 31.7%. Work on `COc1cc2nnc(-c3cc(C)on3)n2nc1OCc1ccc(C2(F)CNC2)cn1` [Embodiment 71] yielded an inhibition at 0.1 µM of 40.7%.
